pIC50: −log10 of the molar value. Values after ≈ are worked out from the molar mass of the structure shown. Active and inactive are the calls of the source. No cut-off for these calls is given here.
What was measured:
Mycobacterium avium = assay: Growth inhibition of Mycobacterium avium 2447; format: functional
[1] = target: Diacylglycerol acyltransferase/mycolyltransferase Ag85C (Mycobacterium tuberculosis, UniProt P9WQN9); assay: Inhibition of Mycobacterium tuberculosis recombinant antigen 85C mycolyltransferase
Diacylglycerol acyltransferase/mycolyltransferase Ag85C, sequence (P9WQN9 whole entry): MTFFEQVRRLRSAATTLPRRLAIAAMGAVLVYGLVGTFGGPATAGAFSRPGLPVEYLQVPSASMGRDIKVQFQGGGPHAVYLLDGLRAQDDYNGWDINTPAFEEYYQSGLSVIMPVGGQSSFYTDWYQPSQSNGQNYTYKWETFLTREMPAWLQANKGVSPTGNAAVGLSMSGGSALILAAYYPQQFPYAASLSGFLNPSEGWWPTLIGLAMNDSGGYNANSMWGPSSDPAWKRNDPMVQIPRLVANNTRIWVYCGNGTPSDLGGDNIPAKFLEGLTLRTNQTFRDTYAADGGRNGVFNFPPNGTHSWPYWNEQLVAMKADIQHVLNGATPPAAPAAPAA

Row | Compound | MIC (Mycobacterium avium) [µg/mL] | pIC50 [1] | Activity (Mycobacterium avium)
1 | CCCCCCCP(=O)(OCC)OCc1ccccc1Oc1ccccc1 (stereo not drawn) | 319 (≈ 817 µM) | 4.68 | –
2 | CCCCP(=O)(OCC)OCc1ccccc1Oc1ccccc1 (stereo not drawn) | 249 (≈ 714 µM) | 5.70 | –
3 | CCCCP(=O)(OCC)OCCN1C(=O)c2ccccc2C1=O (stereo not drawn) | 406 (≈ 1200 µM) | – | –
4 | CCCCCCCCCP(=O)(OCC)OCCN1C(=O)c2ccccc2C1=O (stereo not drawn) | – | – | inactive
5 | CCCCCCCCCP(=O)(OCC)OCN1C(=O)c2ccccc2C1=O (stereo not drawn) | 84.5 (≈ 214 µM) | – | –
6 | CCCCCCP(=O)(OCC)OCc1cc(OC)c(OC)c(OC)c1 (stereo not drawn) | – | 3.99 | –
7 | CCCCP(=O)(OCC)OCN1C(=O)c2ccccc2C1=O (stereo not drawn) | – | – | inactive
8 | CCOP(=O)(O)CCCCN1C(=O)c2ccccc2C1=O | – | 3.96 | –
9 | CCOP(=O)(O)CCc1ccccc1 | – | 3.65 | –
10 | CCCCCCP(=O)(OCC)OCc1ccccc1Oc1ccccc1 (stereo not drawn) | 260 (≈ 690 µM) | 4.37 | –
11 | CCCCCCCCCP(=O)(OCC)OCc1ccccc1Oc1ccccc1 (stereo not drawn) | 188 (≈ 450 µM) | 4.83 | –
12 | CCCCCCCP(=O)(OCC)OCN1C(=O)c2ccccc2C1=O (stereo not drawn) | – | – | inactive
13 | CC[C@H]1OC(=O)[C@H](C)[C@@H](O[C@H]2C[C@@](C)(OC)[C@@H](O)[C@H](C)O2)[C@H](C)[C@@H](O[C@@H]2O[C@H](C)C[C@H](N(C)C)[C@H]2O)[C@](C)(OC)C[C@@H](C)C(=O)[C@H](C)[C@@H](O)[C@]1(C)O [CLARITHROMYCIN] | 0.2 (≈ 0.267 µM) | – | –
14 | CCCCCCCCCCCCCCP(=O)(OCC)OCc1ccccc1Oc1ccccc1 (stereo not drawn) | – | 3.06 | –
